Test results as given in PubChem BioAssay (NCI).
“And” between values parts separate entries of the source, which are not always exact repeats. Identical values can stand only once.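 Interpolation was linear, between the two tested concentrations surrounding the appropriate level; five concentrations were tested over 48 hours in 96-well plates. Here, GI50 denotes the concentration required for 50% inhibition of growth. TGI: total growth inhibition.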

How the values were obtained:
Experiment in all cases: NCI tumour cell line growth inhibition, 48 h
[1] = test system: SNB-19 CNS
[2] = test system: SNB-75 CNS
[3] = test system: A549 NSCLC
[4] = test system: SK-MEL-28 melanoma
[5] = test system: SN12C renal
[6] = test system: U251 CNS
[7] = test system: SW-620 colon
[8] = test system: HT29 colon
[9] = test system: RPMI-8226 leukemia
[10] = test system: OVCAR-5 ovarian

| SMILES | TGI [1] | TGI [2] [µM] | TGI [3] | TGI [4] [µM] | TGI [5] | TGI [6] [µM] | TGI [7] [µM] | TGI [8] [µM] | TGI [9] | TGI [10] [µM] | GI50 [1] [µM] | GI50 [3] [µM] | GI50 [10] [µM] | GI50 [9] [µM] | GI50 [4] [µM] | GI50 [5] [µM] | GI50 [6] [µM] | GI50 [7] [µM] | GI50 [8] [µM] | GI50 [2] [µM] |
| --- | --- | --- | --- | --- | --- | --- | --- | --- | --- | --- | --- | --- | --- | --- | --- | --- | --- | --- | --- | --- |
| Cc1cc(Cl)ccc1N1C(=O)C(=O)C(c2nc3ccccc3o2)C(=O)C1=O | > 100 µM | > 100 | > 100 µM | > 100 | > 100 µM | > 100 | > 100 | > 100 | – | – | – | – | – | – | – | – | – | – | – | – |
| COc1cccc2c1C(=O)c1c(O)c3c(c(O)c1C2=O)C[C@@](O)(C(C)=O)C[C@@H]3OC1CC(O)C(O)C(C)O1 (stereo not given in full) | 8.41 µM and 20.5 µM | – | 6.31 µM and 10.4 µM | 25 | 8.75 µM and 17.5 µM | – | 35.5 | – | 5.5 µM and 8.53 µM | – | – | – | – | – | – | – | – | – | – | – |
| Nc1cc(N)cc(Cc2ccccc2)c1 | > 100 µM | – | > 100 µM | > 100 | > 100 µM | > 100 | > 100 | > 100 | – | > 100 | – | – | – | – | – | – | – | – | – | – |
| COc1ccccc1Nc1nc2ccccc2c2occc12 | > 50 µM | – | 41.4 µM | 40.2 | 33.8 µM | > 50 | > 50 | – | > 50 µM | 39.2 | 14.5 | 14.6 | 19.4 | 20.6 | 8.3 | 10.7 | 14.5 | 22.6 | – | – |
| Cc1cccc2cc3cccc(C(=O)NCCN(C)C)c3nc12 | 6.06 µM | 0.825 | – | 2.21 | 1.02 µM | 2.15 | 10.5 | 3.94 | – | 1.63 | – | – | – | – | – | – | – | – | – | – |
| CSC(=NC#N)S/C=C/C(=O)c1cccc2ccccc12 | > 100 µM | – | > 100 µM | 73.4 | > 100 µM | > 100 | > 100 | > 100 | > 100 µM | 82.9 | 43 | 29.3 | 28.3 | 25 | 28.7 | 31.1 | 31.3 | 36.9 | 53.9 | – |
| Oc1cc2c(cc1C(c1ccc3c(c1)OCO3)N1CCN(C(c3ccc4c(c3)OCO4)c3cc4c(cc3O)OCO4)CC1)OCO2 (stereo not given) | 43.6 µM | 13.7 | > 100 µM | 8.46 | 31 µM | 28.7 | 25.3 | 18.8 | – | 32.6 | – | – | – | – | – | – | – | – | – | – |
| Cc1cc(S(=O)(=O)Nc2nc3ccccc3[nH]2)c(SCc2ccccc2)cc1Cl | > 100 µM | – | > 100 µM | > 100 | > 100 µM | 50.7 | > 100 | – | > 100 µM | > 100 | 36 | > 100 | > 100 | 28.9 | > 100 | 29.6 | 14.9 | > 100 | – | – |
| NC(=NCCO)c1ccc(N2CCCN(c3ccc(C(N)=NCCO)cc3)CC2)cc1 | > 100 µM | > 100 | > 100 µM | > 100 | > 100 µM | > 100 | – | > 100 | – | > 100 | > 100 | 98.3 | > 100 | – | > 100 | 8.8 | > 100 | – | > 100 | > 100 |
| C/C=C/C=C/CCCCCCCCCCCCC[C@]1(OC)C=CC(CC(=O)OC)OO1 (stereo not given in full) | – | 31.2 | > 100 µM | 36.1 | 48 µM | – | 33 | 48.1 | 49.2 µM | – | – | 35 | – | – | – | – | – | 16.7 | 21.9 | – |
| Cc1ccc(S(=O)(=O)N[C@@H](Cc2ccccc2)C(=O)CCl)cc1 | 47.2 µM | 35.8 | > 100 µM | 53.7 | – | 24.5 | 59.4 | > 100 | – | 65.9 | – | 42.6 | 13.7 | – | – | – | 9.3 | 10.2 | 24 | 16.7 |
| COc1cc2c(c(OC)c1OC)C(=O)c1c-2n(CCCN=[N+]=[N-])c(=O)c2cc([N+](=O)[O-])ccc12 | > 100 µM | 54.9 | > 100 µM | > 100 | > 100 µM | > 100 | > 100 | > 100 | – | > 100 | 72.6 | > 100 | > 100 | – | > 100 | > 100 | 58 | > 100 | > 100 | 19.4 |
| OCCSCC/C(=N\N=C(/CCSCCO)c1ccccc1)c1ccccc1 | > 100 µM | – | > 100 µM | > 100 | > 100 µM | > 100 | > 100 | > 100 | > 100 µM | > 100 | – | – | – | – | – | – | – | – | – | – |
| C=C(CN(C)Cc1ccccc1)c1ccc(C(=O)Nc2ccccc2N)cc1 | 43.2 µM | – | 19.1 µM | > 50 | – | 13.8 | > 50 | – | > 50 µM | 21.4 | 6.47 | 5.19 | 5.46 | 1.46 | 7.79 | – | 3.34 | 6.08 | – | – |
